# Experimental data published in US11524942B2, “Metabolites of [3-(4-{2-butyl-1-[4-(4-chloro-phenoxy)-phenyl]-1H-imidazol-4 yl}-phenoxy)-propyl]-diethyl-amine” (vTv Therapeutics LLC, priority 2018, dated 2022).
# Biological target: human sRAGE (the soluble extracellular domain of the human receptor for advanced glycation endproducts) (Homo sapiens (Human), UniProt Q15109)
# Experiment: Microscale thermophoresis binding affinity to recombinant human sRAGE
# Details: 25° C., pH 7.5
# Method: Around 5 nM sRAGE was subsequently added to compounds at concentrations from 600 nM to 20 pM and incubated for 5 minutes at 25° C. in buffer containing 25 mM Hepes (pH 7.5), 5 mM CaCl2), 5 mM MgCl2, 50 mM NaCl, 0.05% Tween20 and 1% DMSO before proceeding to microscale thermophoresis.
# The raw thermophoresis data and average Kds were generated according to manufacturer's protocol using the Microscale Thermophoresis System analysis software.
# Sequence of human sRAGE (the soluble extracellular domain of the human receptor for advanced glycation endproducts) (Q15109 23-342): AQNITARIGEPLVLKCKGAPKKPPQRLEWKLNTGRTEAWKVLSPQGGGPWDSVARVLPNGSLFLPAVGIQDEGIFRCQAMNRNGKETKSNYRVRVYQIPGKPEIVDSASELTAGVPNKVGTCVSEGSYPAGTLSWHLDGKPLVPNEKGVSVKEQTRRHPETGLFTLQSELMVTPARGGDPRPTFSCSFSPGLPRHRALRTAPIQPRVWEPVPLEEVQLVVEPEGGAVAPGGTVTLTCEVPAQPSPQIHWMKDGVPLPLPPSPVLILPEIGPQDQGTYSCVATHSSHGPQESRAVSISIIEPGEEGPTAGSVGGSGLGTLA
row,Kd,Compound
1,219 nM,"CCCCc1nc(-c2ccc(OCCC(=O)O)cc2)cn1-c1ccc(Oc2ccc(Cl)cc2)cc1 [Metabolite M1, 3-(4-{2-Butyl-1-[4-(4-chloro-phenoxy)-phenyl]-1H-imidazol-4-yl}-phenoxy)-propionic acid]"
2,257 nM,"CCCCc1nc(-c2ccc(O)cc2)cn1-c1ccc(Oc2ccc(Cl)cc2)cc1 [Metabolite M3, 4-{2-butyl-1-[4-(4-chloro-phenoxy)-phenyl]-1H-imidazol-4-yl}-phenol]"
3,9.7 nM,"CCCCc1nc(-c2ccc(OCCCN(CC)CC)cc2)cn1-c1ccc(Oc2ccc(Cl)cc2O)cc1 [Metabolite M5, 2-[4-[2-butyl-4-[4-[3-(diethylamino)propoxy]phenyl]imidazol-1-yl]phenoxy]-5-chloro-phenol]"
4,9.8 nM,"CCCCc1nc(-c2ccc(OCCCN(CC)CC)cc2)cn1-c1ccc(Oc2ccc(Cl)c(O)c2)cc1 [Metabolite M6, 5-[4-[2-butyl-4-[4-[3-(diethylamino)propoxy]phenyl]imidazol-1-yl]phenoxy]-2-chloro-phenol]"
5,99.8 nM,"CCCCc1nc(-c2ccc(OCCCO)cc2)cn1-c1ccc(Oc2ccc(Cl)cc2)cc1 [Metabolite M7, 3-(4-{2-Butyl-1-[4-(4-chloro-phenoxy)-phenyl]-1H-imidazol-4-yl}-phenoxy)-propan-1-ol]"
